Experimental data published in patent publication US20080305534A1, “Novel Glycerol Dehydrogenase, Gene Therefor, and Method of Utilizing the Same” (priority 2004, published 2008).

B1: RCG: glycerol dehydrogenase derived from Cellulomonas sp. strain KNK0102, amino acid sequence SEQ ID NO: 1 (protein, listed as Cellulomonas sp.)
chain: MSEVPVRTLISPLRYVQARGALTRLGEFVRPIGTKPLLVADDVVWGIVQDTVAVSFQEQDLPRHRTGFGTYATAAEVDRLAREIDELGADVIVGIGGGSTIDAVKAAGHLRGIRWVSVPTVASTDAPCSALSVIYTEDGAFEEYRFFPHNPDLVLVDTGLVANAPVKFLVAGVGDALATWIEARAVAEANASTMAGGLPLVTGTALAQLSWDILWENALPAIDAVKNHLVTPAVEKVVEANTLLSGLGFESGGLAAAHAIHNGLTAAPQTHGLTHGQKVNIGSVTQLVLEGAPTEEIEEFVRFTTRVGLPNTLTEIGLTADDVHDLTRVAEAATAEGETIHAMPFPVRVPELVDALRSIEGFSRRVRAEAGLPEPVKHTAH

system: RCG; assay: Substrate specificity of RCG (oxidation activity with NAD+); assay type: biochemical, Cellulomonas sp. strain KNK0102; details: pH 8
Method: Oxidation activity was determined by adding 2 mM of coenzyme NAD^+, 10 mM of a compound shown in Table 2, and the enzyme solution to a 100 mM phosphate buffer (pH 8.0) to react at 30° C. for 3 min. followed by the measurement of an increase in absorbance at the wavelength of […]. In Table 2, relative activities are summarized, wherein the activity for glycerol is 100.

Molecule | Relative activity
OCCCCO [1,4-butanediol] | 1%
OCCO [ethylene glycol] | 8%

same assay, conditions: substrate 10 mM, 2 mM NAD+, 100 mM phosphate buffer pH 8.0, 30° C., 3 min; activity for glycerol is 100

Molecule | Relative activity
COCC(O)CO (stereo not shown) [3-methoxy-1,2-propanediol] | 39%
OCCC(O)CO (stereo not shown) [1,2,4-butanetriol] | 21%
OCC(O)COc1ccccc1 (stereo not shown) [3-phenoxy-1,2-propanediol] | 9%
CSCC(O)CO (stereo not shown) [3-methylthio-1,2-propanediol] | 120%
CC(O)CCCO (stereo not shown) [1,4-pentanediol] | 0%
OC(CCl)CCl [1,3-dichloro-2-propanol] | 0%
OCC(O)CS (stereo not shown) [3-mercapto-1,2-propanediol] | 129%
1-amino-2-propanol | 12%
OCC(O)CBr (stereo not shown) [3-bromo-1,2-propanediol] | 58%
CCCO [propanol] | 0%
CCCC(O)CO (stereo not shown) [1,2-pentanediol] | 153%
CCC(O)CO (stereo not shown) [1,2-butanediol] | 129%
CO [methanol] | 0%
CCCCC(O)CO (stereo not shown) [1,2-hexanediol] | 26%
butanol | 0%
OCCCO [1,3-propanediol] | 1%
OCC(O)CCl (stereo not shown) [3-chloro-1,2-propanediol] | 63%
CC(O)CCO (stereo not shown) [1,3-butanediol] | 3%
2-butanol | 0%
CCO [ethanol] | 0%
CC(C)O [isopropanol] | 0%
CC(O)C(C)O (stereo not shown) [2,3-butanediol] | 64%
OCC(O)CO [glycerol] | 100%
CC(O)CO (stereo not shown) [1,2-propanediol] | 142%

system: not given; assay: not given; assay type: biochemical; details: not given
Method: Herein, the expression “having resistance to 1-chloro-3-hydroxyacetone” means that when 1-chloro-3-hydroxyacetone is added to a solution containing the polypeptide (the enzyme) of the present invention at the final concentration of 0.25% and the mixture is incubated at 30° C. for 20 hrs. followed by the determination of the activity to reduce 1-chloro-3-hydroxyacetone under the conditions described above, the resulting activity is 80% or more, preferably 85% or more, more preferably 90% or more of the activity determined without the pretreatment.
Likewise, the expression “having resistance to 3-chloro-1,2-propanediol” means that when the activity to reduce 1-chloro-3-hydroxyacetone is determined after incubation at 30° C. for 20 hrs. in the presence of 1% of 3-chloro-1,2-propanediol, the resulting activity is 80% or more, preferably 90% or more, more preferably 95% or more of the activity determined without the pretreatment.
In order to study the stability of RCG to 1-chloro-3-hydroxyacetone and to 3-chloro-1,2-propanediol, 1-chloro-3-hydroxyacetone was added at the final concentration of 0.25% to the enzyme solution and incubated at 30° C. followed by the measurement of the activity to reduce 1-chloro-3-hydroxyacetone by using the above enzyme solution. […]

Molecule | stability to 1-chloro-3-hydroxyacetone | stability to 3-chloro-1,2-propanediol
B1 | very stable | very stable

system: not listed separately; assay: Action of RCG: stereoselective reduction of 1-chloro-3-hydroxyacetone; assay type: biochemical; details: reduction of 1-chloro-3-hydroxyacetone using NADH as a coenzyme
Method: Furthermore, optical purity of the resulting 3-chloro-1,2-propanediol was determined by high performance liquid chromatography after tosylation.

Molecule | optical purity of (S)-3-chloro-1,2-propanediol formed
B1 | 99.3 % e.e.

system: not listed separately; assay: Optimum pH of RCG for reduction (activity to reduce dihydroxyacetone); assay type: biochemical; details: 10 mM dihydroxyacetone, 0.167 mM NADH, 30° C., pH 4 to pH 9
Method: In order to study the optimum pH of RCG for reduction, the activity to reduce dihydroxyacetone at pH 4 to pH 9 was determined. The enzyme activity was determined by adding 10 mM of the substrate dihydroxyacetone, 0.167 mM of coenzyme NADH, 50 mM of KCl, 50 mM of NH4Cl, and the enzyme solution to a buffer to react at 30° C. for 3 min. followed by the measurement of a decrease in absorbance at […]. As buffers, 100 mM acetic acid buffers (pH4.0 to pH 6.0), 100 mM phosphate buffers (pH 6.0 to pH 8.0), and 100 mM Tris-HCl buffers (pH 8.0 to 9.0) were used to measure the activity at pH 4 to pH 9.

Molecule | optimum pH for reduction
B1 | 6.0

system: not listed separately; assay: Optimum pH of RCG for oxidation (activity to oxidize glycerol); assay type: biochemical; details: 0.1 M glycerol, 2 mM NAD+, 30° C., pH 6 to pH 11
Method: In order to study the optimum pH of RCG for oxidation, the activity to oxidize glycerol at pH6 to pH 11 was determined. The enzyme activity was determined by adding 0.1 M of the substrate glycerol, 2 mM of coenzyme NAD^+, 50 mM of KCl, 50 mM of NH4Cl, and the enzyme solution to a buffer to react at 30° C. for 3 min. followed by the measurement of an increase in absorbance at […]. As buffers, 100 mM phosphate buffers (pH 6.0 to pH 8.0), 100 mM Tris-HCl buffers (pH 8.0 to 9.0), and 100 mM carbonic acid buffers (pH 9.0 to pH 11.0) were used to measure the activity at pH 6 to pH 11.

Molecule | optimum pH for oxidation
B1 | 9.0
